Experimental data reported in PubChem BioAssay AID2060906 (Molecular Pharmacology Branch, DTP, NCI, 2025).

System: 485176-168-R4-J1-PDC complex spheroid growth
Assay: Anticancer human tumor 485176-168-R4-J1-PDC patient-derived pancreatic adenocarcinoma cell line growth inhibition [RAS]
Details: for IC50: curve of first compound; for viability, T/C: stronger effect = lower value; active = viability on the fitted dose curve at most 10% of control; inactive = the rest
Summary of the method: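 Tumour cells grown as complex spheroids with HUVEC endothelial cells and mesenchymal stem cells, treated with RAS pathway inhibitor combinations. Each agent spans half-log steps from near clinical Cmax, or 10 microM where Cmax is unknown.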

[1] = second compound 0.000949 µM, first compound 0.0316 µM
[2] = second compound 0.000949 µM, first compound 0.1 µM
[3] = second compound 0.000949 µM, first compound 0.316 µM
[4] = second compound 0.000949 µM, first compound 1 µM
[5] = second compound 0.000949 µM, first compound 3.16 µM
[6] = second compound 0.000949 µM, first compound 10 µM
[7] = second compound 0.003 µM, first compound 0.0316 µM
[8] = second compound 0.003 µM, first compound 0.1 µM
[9] = second compound 0.003 µM, first compound 0.316 µM
[10] = second compound 0.003 µM, first compound 1 µM
[11] = second compound 0.003 µM, first compound 3.16 µM
[12] = second compound 0.003 µM, first compound 10 µM
[13] = second compound 0.00949 µM, first compound 0.0316 µM
[14] = second compound 0.00949 µM, first compound 0.1 µM
[15] = second compound 0.00949 µM, first compound 0.316 µM
[16] = second compound 0.00949 µM, first compound 1 µM
[17] = second compound 0.00949 µM, first compound 3.16 µM
[18] = second compound 0.00949 µM, first compound 10 µM
[19] = second compound 0.03 µM, first compound 0.0316 µM
[20] = second compound 0.03 µM, first compound 0.1 µM
[21] = second compound 0.03 µM, first compound 0.316 µM
[22] = second compound 0.03 µM, first compound 1 µM
[23] = second compound 0.03 µM, first compound 3.16 µM
[24] = second compound 0.03 µM, first compound 10 µM
[25] = second compound 0.0949 µM, first compound 0.0316 µM
[26] = second compound 0.0949 µM, first compound 0.1 µM
[27] = second compound 0.0949 µM, first compound 0.316 µM
[28] = second compound 0.0949 µM, first compound 1 µM
[29] = second compound 0.0949 µM, first compound 3.16 µM
[30] = second compound 0.0949 µM, first compound 10 µM
[31] = second compound 0.3 µM, first compound 0.0316 µM
[32] = second compound 0.3 µM, first compound 0.1 µM
[33] = second compound 0.3 µM, first compound 0.316 µM
[34] = second compound 0.3 µM, first compound 1 µM
[35] = second compound 0.3 µM, first compound 3.16 µM
[36] = second compound 0.3 µM, first compound 10 µM
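Also: spheroids exposed to compounds for seven days before readout.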
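For viability, T/C in this document: luminescence viability expressed relative to DMSO vehicle wells set as 100%.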

CC(=O)OC12COC1CC(O)C1(C)C(=O)C(O)C3=C(C)C(OC(=O)C(O)C(NC(=O)OC(C)(C)C)c4ccccc4)CC(O)(C(OC(=O)c4ccccc4)C21)C3(C)C (stereo unspecified) + CCn1c(-c2cccnc2C(C)OC)c2c3cc(ccc31)N1CCOC(CC(NC(=O)C(C(C)C)N(C)C(=O)C3(F)CCN(C(=O)C#CC(C)(C)N(C)C)CC3)C(=O)N3CCCC(N3)C(=O)OCC(C)(C)C2)C1
< 31.6 nM: IC50 (second compound 0.000949 µM) | IC50 (second compound 0.003 µM) | IC50 (second compound 0.00949 µM) | IC50 (second compound 0.03 µM) | IC50 (second compound 0.0949 µM) | IC50 (second compound 0.3 µM)
inactive: viability, T/C [1] 13.4% | viability, T/C [2] 13.8% | viability, T/C [3] 13.9% | viability, T/C [4] 10.7% | viability, T/C [5] 13.2% | viability, T/C [6] 17.7% | viability, T/C [7] 15.3% | viability, T/C [8] 12.7% | viability, T/C [9] 12.2% | viability, T/C [10] 14% | viability, T/C [11] 14.4% | viability, T/C [12] 16.7% | viability, T/C [13] 15.4% | viability, T/C [14] 14.8% | viability, T/C [15] 12.1% | viability, T/C [16] 11.9% | viability, T/C [17] 15% | viability, T/C [18] 17.6% | viability, T/C [19] 14.9% | viability, T/C [20] 12.4% | viability, T/C [21] 11.1% | viability, T/C [22] 10.3% | viability, T/C [23] 14.1% | viability, T/C [24] 16.8% | viability, T/C [25] 11.2% | viability, T/C [26] 10.4% | viability, T/C [27] 8.86% | viability, T/C [28] 9.58% | viability, T/C [29] 13.1% | viability, T/C [30] 16.4% | viability, T/C [31] 11.5% | viability, T/C [32] 9.61% | viability, T/C [33] 7.21% | viability, T/C [34] 9.28% | viability, T/C [35] 11.9% | viability, T/C [36] 16.4%

NC1c2ccccc2OC12CCN(c1cnc3c(N4CCCc5ncccc54)n[nH]c3n1)CC2 (stereo unspecified) + CCn1c(-c2cccnc2C(C)OC)c2c3cc(ccc31)N1CCOC(CC(NC(=O)C(C(C)C)N(C)C(=O)C3(F)CCN(C(=O)C#CC(C)(C)N(C)C)CC3)C(=O)N3CCCC(N3)C(=O)OCC(C)(C)C2)C1
> 10000 nM: IC50 (second compound 0.000949 µM) | IC50 (second compound 0.003 µM) | IC50 (second compound 0.00949 µM) | IC50 (second compound 0.03 µM) | IC50 (second compound 0.0949 µM) | IC50 (second compound 0.3 µM)
inactive: viability, T/C [1] 91.4% | viability, T/C [2] 78.7% | viability, T/C [3] 94.2% | viability, T/C [4] 85.9% | viability, T/C [5] 67.8% | viability, T/C [6] 71.6% | viability, T/C [7] 74.5% | viability, T/C [8] 89.4% | viability, T/C [9] 84.1% | viability, T/C [10] 85.5% | viability, T/C [11] 85.7% | viability, T/C [12] 70.2% | viability, T/C [13] 85% | viability, T/C [14] 75.6% | viability, T/C [15] 81.9% | viability, T/C [16] 86.8% | viability, T/C [17] 89.9% | viability, T/C [18] 63.6% | viability, T/C [19] 88.8% | viability, T/C [20] 86.8% | viability, T/C [21] 80.2% | viability, T/C [22] 71.3% | viability, T/C [23] 93.9% | viability, T/C [24] 61.1% | viability, T/C [25] 75% | viability, T/C [26] 71.8% | viability, T/C [27] 72.7% | viability, T/C [28] 65.9% | viability, T/C [29] 82.2% | viability, T/C [30] 61.7% | viability, T/C [31] 59.9% | viability, T/C [32] 76.7% | viability, T/C [33] 57% | viability, T/C [34] 70.2% | viability, T/C [35] 62.9% | viability, T/C [36] 61.7%

Nc1ccn(C2OC(CO)C(O)C2(F)F)c(=O)n1 (stereo unspecified) + CCn1c(-c2cccnc2C(C)OC)c2c3cc(ccc31)N1CCOC(CC(NC(=O)C(C(C)C)N(C)C(=O)C3(F)CCN(C(=O)C#CC(C)(C)N(C)C)CC3)C(=O)N3CCCC(N3)C(=O)OCC(C)(C)C2)C1
inactive: viability, T/C (second compound 0.000949 µM, first compound 0.00316 µM) 76.9% | viability, T/C (second compound 0.000949 µM, first compound 0.01 µM) 79.7% | viability, T/C [1] 15% | viability, T/C (second compound 0.003 µM, first compound 0.00316 µM) 91.1% | viability, T/C (second compound 0.003 µM, first compound 0.01 µM) 87.6% | viability, T/C [7] 16.5% | viability, T/C (second compound 0.00949 µM, first compound 0.00316 µM) 87.6% | viability, T/C (second compound 0.00949 µM, first compound 0.01 µM) 72.9% | viability, T/C [13] 13.3% | viability, T/C [14] 9.05% | viability, T/C [15] 9.37% | viability, T/C [16] 12.1% | viability, T/C (second compound 0.03 µM, first compound 0.00316 µM) 91.4% | viability, T/C (second compound 0.03 µM, first compound 0.01 µM) 79.9% | viability, T/C [19] 13.5% | viability, T/C (second compound 0.0949 µM, first compound 0.00316 µM) 87.8% | viability, T/C (second compound 0.0949 µM, first compound 0.01 µM) 66.9% | viability, T/C (second compound 0.3 µM, first compound 0.00316 µM) 71.7% | viability, T/C (second compound 0.3 µM, first compound 0.01 µM) 58%
14.1 nM: IC50 (second compound 0.0949 µM)
15.6 nM: IC50 (second compound 0.00949 µM)
12 nM: IC50 (second compound 0.3 µM)
16.8 nM: IC50 (second compound 0.03 µM)
18.4 nM: IC50 (second compound 0.003 µM)
active: viability, T/C [2] 7.41% | viability, T/C [3] 10.3% | viability, T/C [4] 9.82% | viability, T/C [8] 7.59% | viability, T/C [9] 8.56% | viability, T/C [10] 11.9% | viability, T/C [20] 8.42% | viability, T/C [21] 8.07% | viability, T/C [22] 6.73% | viability, T/C [25] 9.91% | viability, T/C [26] 4.39% | viability, T/C [27] 7.38% | viability, T/C [28] 6.23% | viability, T/C [31] 8.51% | viability, T/C [32] 3.06% | viability, T/C [33] 4.98% | viability, T/C [34] 5.37%
16.7 nM: IC50 (second compound 0.000949 µM)
